In patent US20230024842A1, “MUPS TABLET COMPRISING RIBOFLAVIN” (DSM IP Assets B.V., priority 2019, published 2023):

Experiment: Absorption of the water solution after 15 min (coloration / riboflavin release from coated particles)
Type: physicochemical
Settings: amount containing 10 mg riboflavin dissolved in 1000 ml water for 15 min; measured at 545 nm, spectrophotometer (Genesys 20)
Experimental: 20 mg of coated powder (containing 10 mg of Riboflavin) was dissolved in 1000 ml water for 15 min. Absorption of the solution was measured at 545 nm using a spectrophotometer (Genesys 20, thermo Scientific). Absorption of the solution was 0.065.
10 mg of riboflavin powder was dissolved in 1000 ml water for 15 min. Absorption of the solution was measured at 545 nm using a spectrophotometer (Genesys 20, thermo Scientific). Absorption of the solution was 0.386.
16.6 mg of coated powder (containing 10 mg of Riboflavin) was dissolved in 1000 ml water for 15 min. Absorption of the solution was measured at 545 nm using a spectrophotometer (Genesys 20, thermo Scientific). Absorption of the solution was 0.087.

Cc1cc2nc3c(=O)[nH]c(=O)nc-3n(C[C@H](O)[C@H](O)[C@H](O)CO)c2cc1C [Comparison Example 2, riboflavin]
Absorption of the solution: 0.386
